target: human plasma kallikrein (Homo sapiens (Human), UniProt P03952); assay: In vitro enzyme inhibition of human plasma kallikrein (PFR-AMC cleavage); type: biochemical; conditions: Pro-Phe-Arg-AMC substrate, 37° C., read-out: hPK IC50
Description: The ability of the compounds disclosed herein to inhibit human plasma kallikrein activity was quantified according to the procedures below.
A 10 mM solution of the test compound was made in DMSO. […] A control tube containing only DMSO is included. 16 μL of each compound test solution was combined with 384 μL of assay buffer (50 mM Tris-HCl pH 7.5, 150 mM NaCl, 0.01% Triton X-100) to yield a “4× test compound buffer stock”.
These solutions are hereby referred to as 4× hPK and 2×PFR-AMC, respectively.
50 μL was removed from this mixture and placed into duplicate wells on a Microfluor 1Black U-bottom microtiter plate (Thermo Scientific). This plate was incubated for 5 minutes at 37° C. To each well, 50 μL of pre-warmed 2×PFR-AMC was added to start the enzymatic reaction. Cleavage of PFR-AMC was monitored in a Biotek Synergy H4 reader set at 37° C. Readings are taken every 43 seconds for 1 hour. […] The IC50 is calculated using the Gen5 (Biotek Instruments).
The ability of the compounds in Table 3 to inhibit human plasma kallikrein activity was determined.

human plasma kallikrein, sequence (P03952 391-638): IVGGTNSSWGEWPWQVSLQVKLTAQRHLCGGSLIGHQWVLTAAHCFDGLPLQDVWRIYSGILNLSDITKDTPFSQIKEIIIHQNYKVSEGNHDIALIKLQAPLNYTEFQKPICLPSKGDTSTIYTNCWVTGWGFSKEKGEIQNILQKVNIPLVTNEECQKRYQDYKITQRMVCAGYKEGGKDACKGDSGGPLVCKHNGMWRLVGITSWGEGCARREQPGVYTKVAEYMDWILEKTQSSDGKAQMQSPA
human plasma kallikrein, sequence (P03952 20-390 partner): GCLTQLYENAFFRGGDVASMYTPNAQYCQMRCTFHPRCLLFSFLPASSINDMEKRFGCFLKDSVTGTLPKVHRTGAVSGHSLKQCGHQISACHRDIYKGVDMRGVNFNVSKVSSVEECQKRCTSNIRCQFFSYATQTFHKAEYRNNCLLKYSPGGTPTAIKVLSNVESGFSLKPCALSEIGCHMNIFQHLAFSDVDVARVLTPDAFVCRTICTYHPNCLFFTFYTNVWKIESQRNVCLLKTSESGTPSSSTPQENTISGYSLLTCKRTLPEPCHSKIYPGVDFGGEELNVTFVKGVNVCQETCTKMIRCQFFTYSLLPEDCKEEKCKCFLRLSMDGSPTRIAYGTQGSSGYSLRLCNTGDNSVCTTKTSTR

| IC50 [nM] | SMILES |
| --- | --- |
| < 100 | Cc1cc(N)nc(C)c1CNC(=O)c1ccnc(Cc2ccc3ncc(C(C)O)cc3c2)c1 (stereo not drawn) [Example 262, N-((6-amino-2,4-dimethylpyridin-3-yl)methyl)-2-((3-(1-hydroxyethyl)quinolin-6-yl)methyl)isonicotinamide] |
| 100 to 1000 | Cc1nc(N)ccc1CNC(=O)c1cc(Cc2cnc3ncc(Cl)cc3c2)ncc1C#N [Example 216, N-((6-amino-2-methylpyridin-3-yl)methyl)-2-((6-chloro-1,8-naphthyridin-3-yl)methyl)-5-cyanoisonicotinamide] |
| < 100 | O=C(NCc1n[nH]c2ccc(Cl)cc12)c1ccnc(Cc2ccc3ncc(C(F)(F)F)cc3c2)c1 [Example 233, N-((5-chloro-1H-indazol-3-yl)methyl)-2-((3-(trifluoromethyl)quinolin-6-yl)methyl)isonicotinamide] |
| < 100 | Cc1cnc2c(C(C)(C)O)cc(Cc3cc(C(=O)NCc4c(C)cc(N)nc4C)ccn3)cc2c1 [Example 318, N-((6-amino-2,4-dimethylpyridin-3-yl)methyl)-2-((8-(2-hydroxypropan-2-yl)-3-methylquinolin-6-yl)methyl)isonicotinamide] |
| 100 to 1000 | Nc1cnc2ccc(Cc3cc(C(=O)NCc4ccc5c(N)nccc5c4)ccn3)cc2c1 [Example 298, N-((1-aminoisoquinolin-6-yl)methyl)-2-((3-aminoquinolin-6-yl)methyl)isonicotinamide] |
| < 100 | Cc1nc(N)ccc1CNC(=O)c1ccnc(Cc2cnc3ncc(Cl)cc3c2)c1 [Example 205, N-((6-amino-2-methylpyridin-3-yl)methyl)-2-((6-chloro-1,8-naphthyridin-3-yl)methyl)isonicotinamide] |
| 1000 to 10000 | Nc1cnc2ccc(Cc3cc(C(=O)NCc4n[nH]c5ccc(Cl)cc45)ccn3)cc2c1 [Example 299, 2-((3-aminoquinolin-6-yl)methyl)-N-((5-chloro-1H-indazol-3-yl)methyl)isonicotinamide] |
| 100 to 1000 | Cc1nc(N)ccc1CNC(=O)c1ccnc(Cc2ccc3ncc(C(C)O)cc3c2)c1 (stereo not drawn) [Example 263, N-((6-amino-2-methylpyridin-3-yl)methyl)-2-((3-(1-hydroxyethyl)quinolin-6-yl)methyl)isonicotinamide] |
| > 10000 | Cc1nc(NCCO)ccc1CNC(=O)c1ccnc(Cc2ccc3ncc(Cl)cc3c2)c1 [Example 252, 2-((3-chloroquinolin-6-yl)methyl)-N-((6-((2-hydroxyethyl)amino)-2-methylpyridin-3-yl)methyl)isonicotinamide] |
| 100 to 1000 | O=C(NCc1cnc2[nH]cc(Cl)c2c1)c1ccnc(Cc2ccc3ncc(N4CCCC4)cc3c2)c1 [Example 310, N-((3-chloro-1H-pyrrolo[2,3-b]pyridin-5-yl)methyl)-2-((3-(pyrrolidin-1-yl)quinolin-6-yl)methyl)isonicotinamide] |
| > 10000 | O=C(NCc1ccc2[nH]cc(Cl)c2c1F)c1ccnc(Cc2ccc3ncc(N4CCCCC4)cc3c2)c1 [Example 305, N-((3-chloro-4-fluoro-1H-indol-5-yl)methyl)-2-((3-(piperidin-1-yl)quinolin-6-yl)methyl)isonicotinamide] |
| 100 to 1000 | Nc1cnc2ccc(Cc3cc(C(=O)NCc4cc5c(Cl)c[nH]c5cc4F)ccn3)cc2c1 [Example 297, 2-((3-aminoquinolin-6-yl)methyl)-N-((3-chloro-6-fluoro-1H-indol-5-yl)methyl)isonicotinamide] |
| 100 to 1000 | Cc1cc(N)nc(C)c1CNC(=O)c1ccnc(Cn2cc3cc(Cl)cnc3n2)c1 [Example 203, N-((6-amino-2,4-dimethylpyridin-3-yl)methyl)-2-((5-chloro-2H-pyrazolo[3,4-b]pyridin-2-yl)methyl)isonicotinamide] |
| 100 to 1000 | Cc1cc(N)nc(C)c1CNC(=O)c1ccnc(Cc2ccc3ncc(C(N)=O)cc3c2)c1 [Example 250, 6-((4-(((6-amino-2,4-dimethylpyridin-3-yl)methyl)carbamoyl)pyridin-2-yl)methyl)quinoline-3-carboxamide] |
| 1000 to 10000 | Cc1nc(N)ccc1CNC(=O)c1ccnc(Cc2ccc3ncc(C(N)=O)cc3c2)c1 [Example 251, 6-((4-(((6-amino-2-methylpyridin-3-yl)methyl)carbamoyl)pyridin-2-yl)methyl)quinoline-3-carboxamide] |
| < 100 | CCc1cnc2ccc(Cc3cc(C(=O)NCc4ccc(N)nc4C)ccn3)cc2c1 [Example 285, N-((6-amino-2-methylpyridin-3-yl)methyl)-2-((3-ethylquinolin-6-yl)methyl)isonicotinamide] |
| < 100 | Cc1cnc2c(C(C)(C)O)cc(Cc3cc(C(=O)NCc4cc5c(Cl)c[nH]c5cc4F)ccn3)cc2c1 [Example 314, N-((3-chloro-6-fluoro-1H-indol-5-yl)methyl)-2-((8-(2-hydroxypropan-2-yl)-3-methylquinolin-6-yl)methyl)isonicotinamide] |
| < 100 | CCc1cnc2ccc(Cc3cc(C(=O)NCc4n[nH]c5ccc(Cl)cc45)ccn3)cc2c1 [Example 284, N-((5-chloro-1H-indazol-3-yl)methyl)-2-((3-ethylquinolin-6-yl)methyl)isonicotinamide] |
| 1000 to 10000 | O=C(NCc1n[nH]c2ccc(Cl)cc12)c1ccnc(Cc2ccc3ncc(N4CCOCC4)cc3c2)c1 [Example 295, N-((5-chloro-1H-indazol-3-yl)methyl)-2-((3-morpholinoquinolin-6-yl)methyl)isonicotinamide] |

More lines, now with the values behind:

| SMILES | IC50 [nM] |
| --- | --- |
| NCc1ccc(CNC(=O)c2ccnc(Cc3ccc4ncc(Cl)cc4c3)c2)cn1 [Example 169, N-((6-(aminomethyl)pyridin-3-yl)methyl)-2-((3-chloroquinolin-6-yl)methyl)isonicotinamide] | > 10000 |
| Cc1cc(C(C)N)nc(C)c1CNC(=O)c1ccnc(Cc2ccc3ncc(Cl)cc3c2)c1 (stereo not drawn) [Example 173, N-((6-(1-aminoethyl)-2,4-dimethylpyridin-3-yl)methyl)-2-((3-chloroquinolin-6-yl)methyl)isonicotinamide] | 1000 to 10000 |
| CC(=O)Nc1cc(C)c(CNC(=O)c2ccnc(Cc3ccc4ncc(Cl)cc4c3)c2)c(C)n1 [Example 193, N-((6-acetamido-2,4-dimethylpyridin-3-yl)methyl)-2-((3-chloroquinolin-6-yl)methyl)isonicotinamide] | 1000 to 10000 |
| Cc1nc2c(c(C)c1CNC(=O)c1ccnc(Cc3ccc4ncc(Cl)cc4c3)c1)CCCN2 [Example 195, 2-((3-chloroquinolin-6-yl)methyl)-N-((2,4-dimethyl-5,6,7,8-tetrahydro-1,8-naphthyridin-3-yl)methyl)isonicotinamide] | < 100 |
| Cc1cc2[nH]cc(Cl)c2cc1CNC(=O)c1ccnc(Cc2ccc3ncc(Cl)cc3c2)c1 [Example 190, N-((3-chloro-6-methyl-1H-indol-5-yl)methyl)-2-((3-chloroquinolin-6-yl)methyl)isonicotinamide] | 100 to 1000 |
| Cc1cc(C)c(CNC(=O)c2ccnc(Cc3ccc4ncc(Cl)cc4c3)c2)c(C)n1 [Example 194, 2-((3-chloroquinolin-6-yl)methyl)-N-((2,4,6-trimethylpyridin-3-yl)methyl)isonicotinamide] | 1000 to 10000 |
| COc1cc(N)nc(C)c1CNC(=O)c1ccnc(Cc2ccc3ncc(Cl)cc3c2)c1 [Example 166, N-((6-amino-4-methoxy-2-methylpyridin-3-yl)methyl)-2-((3-chloroquinolin-6-yl)methyl)isonicotinamide] | > 10000 |
| Cc1cc(N)nc(C)c1CNC(=O)c1ccnc(Cc2cnc3[nH]c(Cl)cc3c2)c1 [Example 150, N-((6-amino-2,4-dimethylpyridin-3-yl)methyl)-2-((2-chloro-1H-pyrrolo[2,3-b]pyridin-5-yl)methyl)isonicotinamide] | 100 to 1000 |
| O=C(NCc1cc2c(Cl)c[nH]c2cc1F)c1ccnc(Cc2ccc3ncc(N4CCCC4)cc3c2)c1 [Example 307, N-((3-chloro-6-fluoro-1H-indol-5-yl)methyl)-2-((3-(pyrrolidin-1-yl)quinolin-6-yl)methyl)isonicotinamide] | 100 to 1000 |
| CC1=CC2C=NN(Cc3cc(C(=O)NCc4c(C)cc(N)nc4C)ccn3)C2C=C1 (stereo not drawn) [Example 201, N-((6-amino-2,4-dimethylpyridin-3-yl)methyl)-2-((5-methyl-3a,7a-dihydro-1H-indazol-1-yl)methyl)isonicotinamide] | < 100 |
| O=C(NCc1nnc2ccc(Cl)cn12)c1ccnc(Cc2ccc3ncc(Cl)cc3c2)c1 [Example 154, N-((6-chloro-[1,2,4]triazolo[4,3-a]pyridin-3-yl)methyl)-2-((3-chloroquinolin-6-yl)methyl)isonicotinamide] | 100 to 1000 |
| O=C(NCc1c[nH]c2ccc(Cl)cc12)c1ccnc(Cc2ccc3ncc(Cl)cc3c2)c1 [Example 268, N-((5-chloro-1H-indol-3-yl)methyl)-2-((3-chloroquinolin-6-yl)methyl)isonicotinamide] | 100 to 1000 |
| Cc1nc(N)cc(C(F)(F)F)c1CNC(=O)c1ccnc(Cc2ccc3ncc(Cl)cc3c2)c1 [Example 165, N-((6-amino-2-methyl-4-(trifluoromethyl)pyridin-3-yl)methyl)-2-((3-chloroquinolin-6-yl)methyl)isonicotinamide] | 100 to 1000 |
| Cc1cc(N)nc(C)c1CNC(=O)c1ccnc(Cn2ncc3cc(Cl)cnc32)c1 [Example 202, N-((6-amino-2,4-dimethylpyridin-3-yl)methyl)-2-((5-chloro-1H-pyrazolo[3,4-b]pyridin-1-yl)methyl)isonicotinamide] | 100 to 1000 |
